Assay results as given in patent US20250353891A1 (MEDIMMUNE LIMITED, priority 2022, published 2025).
Starred links: 1 amine or outer side, 2 acyl side, 3 side chain; linkers in the order of their positions; H or OH if unused. Non-standard residues stand in square brackets, D forms with d. Residues, ends and D or L forms follow the SMILES beside them. Groups on a side chain read outwards from the residue. *: point of attachment. C20 diacid = O=C(O)CCCCCCCCCCCCCCCCCCC(=O)*; γGlu = O=C(O)[C@H](CCC(=O)[*:2])N[*:1]; αMeF = C[C@](N)(Cc1ccccc1)C(=O)O; AEEA = NCCOCCOCC(=O)O; Aib = CC(C)(N)C(=O)O

Experiments:
[1] = molecular target: human glucagon receptor (hGCGR) (Homo sapiens, UniProt P47871); assay: cAMP production (HTRF) in CHO cells expressing hGCGR; type: cell-based; parameters: expressed in transfected cells; details: Table 7, peptides modified at position 20; cAMP in CHO hGCGR cells; geometric mean; read-out: hGluc-R EC50
Procedure, shortened: (§1)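 Cells were resuspended in assay buffer at batch-optimized density, typically 1×10^5 cells/mL for hGLP-1R and 2×10^5 cells/mL for hGCGR. After 30 min incubation at room temperature with compound, cAMP was measured by two-step HTRF. EC50 values came from 4-parameter logistic fits of % Delta F.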

[2] = molecular target: human GLP-1 receptor (hGLP-1R) (Homo sapiens, UniProt P43220); assay: cAMP production (HTRF) in CHO cells expressing hGLP-1R; type: cell-based; parameters: expressed in transfected cells; details: for EC50: Table 7, peptides modified at position 20, cAMP in CHO hGLP-1R cells, geometric mean, read-out: hGLP-1R EC50; for % Relative Potency Ratio: Table 7, % GLP-1R activity relative to GLP-1 / % GlucR activity relative to glucagon
Procedure, shortened: as §1

Chain of human GLP-1 receptor (hGLP-1R) (P43220 24-463): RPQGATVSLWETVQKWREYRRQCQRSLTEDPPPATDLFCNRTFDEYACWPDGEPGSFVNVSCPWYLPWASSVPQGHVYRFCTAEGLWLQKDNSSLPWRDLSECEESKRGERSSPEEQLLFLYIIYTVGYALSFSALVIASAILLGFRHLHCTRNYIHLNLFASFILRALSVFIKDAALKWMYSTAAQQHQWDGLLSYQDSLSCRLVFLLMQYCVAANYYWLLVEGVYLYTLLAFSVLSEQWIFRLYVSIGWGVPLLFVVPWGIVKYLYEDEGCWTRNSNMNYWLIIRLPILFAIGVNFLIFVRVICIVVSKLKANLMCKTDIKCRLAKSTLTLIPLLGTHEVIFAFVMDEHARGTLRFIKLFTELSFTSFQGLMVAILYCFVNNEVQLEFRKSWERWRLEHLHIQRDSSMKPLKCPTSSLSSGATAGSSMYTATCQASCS
Chain of human glucagon receptor (hGCGR) (P47871 26-477): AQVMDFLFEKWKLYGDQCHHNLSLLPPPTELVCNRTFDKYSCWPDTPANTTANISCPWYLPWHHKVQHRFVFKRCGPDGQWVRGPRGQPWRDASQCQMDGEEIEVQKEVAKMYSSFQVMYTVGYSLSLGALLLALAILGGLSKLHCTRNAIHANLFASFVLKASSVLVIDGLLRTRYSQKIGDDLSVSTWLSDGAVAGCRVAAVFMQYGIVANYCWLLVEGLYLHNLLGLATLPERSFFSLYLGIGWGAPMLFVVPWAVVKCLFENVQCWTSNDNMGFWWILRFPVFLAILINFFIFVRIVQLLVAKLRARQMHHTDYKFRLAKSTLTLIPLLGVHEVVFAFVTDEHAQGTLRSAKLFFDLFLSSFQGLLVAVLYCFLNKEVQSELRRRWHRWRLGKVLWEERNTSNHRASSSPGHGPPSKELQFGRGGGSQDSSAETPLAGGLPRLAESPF

Row | SMILES | EC50 [1] | EC50 [2] | % Relative Potency Ratio [2]
1 | CC[C@H](C)[C@H](NC(=O)[C@H](Cc1c[nH]c2ccccc12)NC(=O)[C@H](CCC(=O)O)NC(=O)[C@@H](NC(=O)[C@H](Cc1ccccc1)NC(=O)[C@H](CC(=O)O)NC(=O)[C@H](CCCCNC(=O)COCCOCCNC(=O)COCCOCCNC(=O)CC[C@H](NC(=O)CCCCCCCCCCCCCCCCCCC(=O)O)C(=O)O)NC(=O)[C@H](C)NC(=O)[C@H](C)NC(=O)[C@H](CCCNC(=N)N)NC(=O)[C@H](CO)NC(=O)[C@H](CC(=O)O)NC(=O)[C@H](CC(C)C)NC(=O)[C@](C)(Cc1ccccc1)NC(=O)[C@H](CCCCN)NC(=O)[C@H](CO)NC(=O)[C@@H](NC(=O)[C@H](CC(=O)O)NC(=O)[C@H](CO)NC(=O)[C@@H](NC(=O)[C@](C)(Cc1ccccc1)NC(=O)[C@H](CO)NC(=O)CNC(=O)[C@H](Cc1c[nH]cn1)NC(=O)C(C)(C)NC(=O)[C@@H](N)Cc1c[nH]cn1)[C@@H](C)O)C(C)C)C(C)C)C(=O)N[C@@H](C)C(=O)N[C@@H](CC(N)=O)C(=O)N[C@H](C(N)=O)[C@@H](C)O [Peptide 212] (H-H[Aib]HGS[αMeF]TSDVSK[αMeF]LDSRAAK([AEEA-AEEA-γGlu-C20 diacid])DFVEWIANT-NH2) | 97.5 pM | 532 pM | 0.4
2 | CC[C@H](C)[C@H](NC(=O)[C@H](Cc1c[nH]c2ccccc12)NC(=O)[C@H](CCC(=O)O)NC(=O)[C@@H](NC(=O)[C@H](Cc1ccccc1)NC(=O)[C@H](CC(=O)O)NC(=O)[C@H](CCCCNC(=O)COCCOCCNC(=O)COCCOCCNC(=O)CC[C@H](NC(=O)CC[C@H](NC(=O)CCCCCCCCCCCCCCCCCCC(=O)O)C(=O)O)C(=O)O)NC(=O)[C@H](C)NC(=O)[C@H](C)NC(=O)[C@H](CCCNC(=N)N)NC(=O)[C@H](CO)NC(=O)[C@H](CC(=O)O)NC(=O)[C@H](CC(C)C)NC(=O)[C@](C)(Cc1ccccc1)NC(=O)[C@H](CCCCN)NC(=O)[C@H](CO)NC(=O)[C@@H](NC(=O)[C@H](CC(=O)O)NC(=O)[C@H](CO)NC(=O)[C@@H](NC(=O)[C@](C)(Cc1ccccc1)NC(=O)[C@H](CO)NC(=O)CNC(=O)[C@H](Cc1c[nH]cn1)NC(=O)C(C)(C)NC(=O)[C@@H](N)Cc1c[nH]cn1)[C@@H](C)O)C(C)C)C(C)C)C(=O)N[C@@H](C)C(=O)N[C@@H](CC(N)=O)C(=O)N[C@H](C(N)=O)[C@@H](C)O [Peptide 213] (H-H[Aib]HGS[αMeF]TSDVSK[αMeF]LDSRAAK([AEEA-AEEA-γGlu-γGlu-C20 diacid])DFVEWIANT-NH2; N-terminus assumed) | 141 pM | 534 pM | 0.5
3 | CC[C@H](C)[C@H](NC(=O)[C@H](Cc1c[nH]c2ccccc12)NC(=O)[C@H](CCC(N)=O)NC(=O)[C@@H](NC(=O)[C@H](Cc1ccccc1)NC(=O)[C@H](CC(=O)O)NC(=O)[C@H](CCCCNC(=O)COCCOCCNC(=O)COCCOCCNC(=O)CC[C@H](NC(=O)CCCCCCCCCCCCCCCCCCC(=O)O)C(=O)O)NC(=O)[C@H](C)NC(=O)[C@H](C)NC(=O)[C@H](CCCNC(=N)N)NC(=O)[C@H](CO)NC(=O)[C@H](CC(=O)O)NC(=O)[C@H](CC(C)C)NC(=O)[C@](C)(Cc1ccccc1)NC(=O)[C@H](CCCCN)NC(=O)[C@H](CO)NC(=O)[C@@H](NC(=O)[C@H](CC(=O)O)NC(=O)[C@H](CO)NC(=O)[C@@H](NC(=O)[C@](C)(Cc1ccccc1)NC(=O)[C@H](CO)NC(=O)CNC(=O)[C@H](Cc1c[nH]cn1)NC(=O)C(C)(C)NC(=O)[C@@H](N)Cc1c[nH]cn1)[C@@H](C)O)C(C)C)C(C)C)C(=O)N[C@@H](C)C(=O)N[C@@H](CC(N)=O)C(=O)N[C@H](C(N)=O)[C@@H](C)O [Peptide 214] (H-H[Aib]HGS[αMeF]TSDVSK[αMeF]LDSRAAK([AEEA-AEEA-γGlu-C20 diacid])DFVQWIANT-NH2) | 810 pM | 2340 pM | 0.7
